Target: Clostridium perfringens CGH (Clostridium perfringens, UniProt P54965)
Format: binding
Settings: 0-500 μM, 37° C., 24 h, in-gel fluorescence

Chain of Clostridium perfringens CGH (P54965 whole entry, looked up): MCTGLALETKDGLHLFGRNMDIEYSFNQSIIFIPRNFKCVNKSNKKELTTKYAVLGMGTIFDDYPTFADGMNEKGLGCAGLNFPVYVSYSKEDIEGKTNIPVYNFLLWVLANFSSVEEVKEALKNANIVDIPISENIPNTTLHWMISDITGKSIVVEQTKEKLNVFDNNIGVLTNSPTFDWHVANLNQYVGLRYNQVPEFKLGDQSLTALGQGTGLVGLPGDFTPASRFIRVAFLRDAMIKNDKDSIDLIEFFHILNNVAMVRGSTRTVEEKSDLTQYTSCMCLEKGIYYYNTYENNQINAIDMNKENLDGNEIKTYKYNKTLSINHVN

Row | Compound | labeling of C. perfringens BSH
1 | Cc1cccc(C)c1C(=O)OCC(=O)CC[C@@H](C)[C@H]1CC[C@H]2[C@@H]3CC[C@@H]4C[C@H](N=[N+]=[N-])CC[C@]4(C)[C@H]3C[C@H](O)[C@]12C [DCA-AOMK, N3-DCA-AOMK] | label Clostridium perfringens bile salt hydrolase (BSH)
2 | Cc1cccc(C)c1C(=O)OCC(=O)CC[C@@H](C)[C@H]1CC[C@H]2[C@@H]3[C@H](O)C[C@@H]4C[C@H](N=[N+]=[N-])CC[C@]4(C)[C@H]3CC[C@]12C [CDCA-AOMK, N3-CDCA-AOMK] | label Clostridium perfringens bile salt hydrolase (BSH)

— patent US12215127B2 (priority 2020, dated 2025)
